The text below walks through data of ChEMBL document CHEMBL5375992, “Design and Development of IKZF2 and CK1α Dual Degraders” (J Med Chem, 2023).

The source made the active and inactive calls. No cut-off for these calls is given here.

For data set [1], the target named is T1, Cereblon/Ikaros (Homo sapiens) (UniProt Q96SW2+Q13422). Put plainly: Protac activity at CRBN/IKZF1 (unknown origin) transfected in HEK293T cells at 100 nM incubated for 24 hrs by flow cytometry analysis relative to control. In kind it is cell-based.
In data set [2] the target is T2, Protein cereblon/Zinc finger protein Helios (Homo sapiens) (UniProt Q96SW2+Q9UKS7). Put plainly: Protac activity at CRBN/IKZF2 (unknown origin) transfected in HEK293T cells at 100 nM incubated for 24 hrs by flow cytometry analysis relative to control. In kind it is cell-based.
T2 sequence (Q96SW2 whole entry, looked up): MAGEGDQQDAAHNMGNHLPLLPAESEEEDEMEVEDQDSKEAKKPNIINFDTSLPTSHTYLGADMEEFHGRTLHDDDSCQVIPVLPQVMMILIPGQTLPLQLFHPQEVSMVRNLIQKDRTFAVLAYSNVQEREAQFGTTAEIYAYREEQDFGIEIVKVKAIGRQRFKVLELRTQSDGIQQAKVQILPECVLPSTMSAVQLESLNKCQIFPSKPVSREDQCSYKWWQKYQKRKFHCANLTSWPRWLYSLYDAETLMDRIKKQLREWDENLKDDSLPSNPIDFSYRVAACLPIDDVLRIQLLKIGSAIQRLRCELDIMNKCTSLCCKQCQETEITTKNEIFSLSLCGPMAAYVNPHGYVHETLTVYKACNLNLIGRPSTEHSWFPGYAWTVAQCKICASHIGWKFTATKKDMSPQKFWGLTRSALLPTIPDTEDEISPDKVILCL
T2 sequence (Q9UKS7 whole entry, looked up): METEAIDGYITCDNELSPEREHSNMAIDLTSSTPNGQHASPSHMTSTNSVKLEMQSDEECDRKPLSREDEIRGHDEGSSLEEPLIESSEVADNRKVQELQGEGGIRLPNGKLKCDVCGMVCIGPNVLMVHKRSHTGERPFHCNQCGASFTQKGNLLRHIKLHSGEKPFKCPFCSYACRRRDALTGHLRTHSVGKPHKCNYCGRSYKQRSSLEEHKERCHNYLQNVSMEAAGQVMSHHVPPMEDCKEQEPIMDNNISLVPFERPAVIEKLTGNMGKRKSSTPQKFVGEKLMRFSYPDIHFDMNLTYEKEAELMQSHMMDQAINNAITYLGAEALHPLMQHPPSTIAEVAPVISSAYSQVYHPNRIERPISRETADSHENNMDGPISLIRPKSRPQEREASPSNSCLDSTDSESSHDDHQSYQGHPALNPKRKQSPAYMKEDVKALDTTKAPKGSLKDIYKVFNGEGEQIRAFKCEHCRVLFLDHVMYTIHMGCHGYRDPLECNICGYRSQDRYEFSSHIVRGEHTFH
For data set [3], the target named is T3, Cereblon/Casein kinase I alpha (Homo sapiens) (UniProt P48729+Q96SW2). Description: Protac activity at CRBN/CK1alpha (unknown origin) transfected in HEK293T cells at 100 nM incubated for 24 hrs by flow cytometry analysis relative to control. The class given is cell-based.
T3 sequence (P48729 2-337 limits assumed): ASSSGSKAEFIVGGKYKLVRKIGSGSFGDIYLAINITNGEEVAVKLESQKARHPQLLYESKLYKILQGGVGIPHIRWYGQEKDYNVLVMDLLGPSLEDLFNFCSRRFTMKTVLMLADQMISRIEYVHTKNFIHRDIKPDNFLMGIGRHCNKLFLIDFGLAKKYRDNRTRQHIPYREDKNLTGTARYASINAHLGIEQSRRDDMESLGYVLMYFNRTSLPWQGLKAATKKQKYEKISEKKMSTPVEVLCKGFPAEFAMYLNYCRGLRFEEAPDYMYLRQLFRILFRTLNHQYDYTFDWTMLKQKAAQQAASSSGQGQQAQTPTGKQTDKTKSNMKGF
T3 sequence (Q96SW2 whole entry partner): as the sequence (Q96SW2 whole entry, looked up) above
The target in data set [4] is T4, Protein cereblon/Eukaryotic peptide chain release factor GTP-binding subunit ERF3A (Homo sapiens) (UniProt Q96SW2+P15170). Put plainly: Protac activity at CRBN/GSPT1 (unknown origin) transfected in HEK293T cells at 100 nM incubated for 24 hrs by flow cytometry analysis relative to control. The class given is cell-based.
T4 sequence (P15170 whole entry, looked up): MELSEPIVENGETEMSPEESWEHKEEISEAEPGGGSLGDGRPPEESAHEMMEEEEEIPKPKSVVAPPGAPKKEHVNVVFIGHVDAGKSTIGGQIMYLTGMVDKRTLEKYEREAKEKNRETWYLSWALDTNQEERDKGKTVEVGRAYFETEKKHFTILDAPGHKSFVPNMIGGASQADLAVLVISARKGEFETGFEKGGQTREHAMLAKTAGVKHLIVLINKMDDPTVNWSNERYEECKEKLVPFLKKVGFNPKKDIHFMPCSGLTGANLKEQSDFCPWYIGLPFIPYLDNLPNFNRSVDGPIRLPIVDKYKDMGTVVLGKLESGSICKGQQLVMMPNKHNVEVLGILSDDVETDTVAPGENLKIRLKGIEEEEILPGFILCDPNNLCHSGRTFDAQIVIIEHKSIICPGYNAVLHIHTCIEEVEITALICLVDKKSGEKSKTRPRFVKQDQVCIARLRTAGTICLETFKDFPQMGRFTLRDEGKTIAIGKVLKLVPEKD
T4 sequence (Q96SW2 whole entry, looked up): as the sequence (Q96SW2 whole entry, looked up) above
Data set [5] addresses T1, Cereblon/Ikaros (Homo sapiens). Put plainly: Protac activity at CRBN/IKZF1 (unknown origin) transfected in HEK293T cells at 1 uM incubated for 24 hrs by flow cytometry analysis relative to control. In kind it is cell-based.
The target of data set [6] is T2, Protein cereblon/Zinc finger protein Helios (Homo sapiens). Put plainly: Protac activity at CRBN/IKZF2 (unknown origin) transfected in HEK293T cells at 1 uM incubated for 24 hrs by flow cytometry analysis relative to control. The class given is cell-based.
For data set [7], the target named is T3, Cereblon/Casein kinase I alpha (Homo sapiens). Put plainly: Protac activity at CRBN/CK1alpha (unknown origin) transfected in HEK293T cells at 1 uM incubated for 24 hrs by flow cytometry analysis relative to control. In kind it is cell-based.
The target of data set [8] is T4, Protein cereblon/Eukaryotic peptide chain release factor GTP-binding subunit ERF3A (Homo sapiens). Description: Protac activity at CRBN/GSPT1 (unknown origin) transfected in HEK293T cells at 1 uM incubated for 24 hrs by flow cytometry analysis relative to control. In kind it is cell-based.
A short description of data set [9]: Metabolic stability in mouse liver microsomes assessed as half life preincubated with NADPH and UDPGA for 5 mins followed by compound addition and measured upto 60 mins by LC-MS/MS analysis. The class given is ADME, Microsome.
Data set [10] in a line: Metabolic stability in mouse liver microsomes assessed as intrinsic clearance preincubated with NADPH and UDPGA for 5 mins followed by compound addition and measured upto 60 mins by LC-MS/MS analysis. The class given is ADME, Microsome. The note with it: read-out: CLH.
Data set [11] can be described thus: Metabolic stability in human liver microsomes assessed as intrinsic clearance preincubated with NADPH and UDPGA for 5 mins followed by compound addition and measured upto 60 mins by LC-MS/MS analysis. The class given is ADME, Microsome. The note with it: read-out: CLH.
In data set [12] the target is T4, Protein cereblon/Eukaryotic peptide chain release factor GTP-binding subunit ERF3A (Homo sapiens). Put plainly: Protac activity at CRBN/GSPT1 in human NCI-H1048 cells at 10 to 100 nM incubated for 24 hrs by Western blotting analysis. In kind it is cell-based. The following applies: dose 10-100 nM.

For the compound `COc1ccc2cc(C(=O)Nc3ccc4c(c3)CN(C3CCC(=O)NC3=O)C4=O)ccc2c1` (centres undefined), the Activity came out at 7% in [1]; 90% in data set [2]; 70% in data set [2] (tested as the 2H-labelled form); 70% in [3]; 52% in [3] (tested as the 2H-labelled form); 8% in data set [4]. Besides, the Activity in data set [5] worked out at 9%; in data set [6], 94%; in [7], 70%; in data set [8] it was 18%. Also, the half-life in data set [9] turned out to be 3.13 h. For the same compound, the microsomal CLint was 7.4 µL/min/mg in data set [10] and 362 µL/min/mg in data set [11]. Further, in data set [12], the result was Active.
